Laboratory results published in patent US20200405697A1, “Antitumor Agent” (Taiho Pharmaceutical Co., Ltd, priority 2017, published 2020).

System: A549 (Human lung cancer cell line)
Experiment: Effect of combination of sulfonamide compound and other antitumor agent (CellTiter-Glo, combination index): A549
[1] = Example Compound 14 4420 nM + 5-Fluorouracil 2700 nM
[2] = Example Compound 209A 952 nM + 5-Fluorouracil 4310 nM
[3] = Example Compound 235A 1170 nM + 5-Fluorouracil 4310 nM
[4] = Example Compound 14 4420 nM + Azacytidine 4080 nM
[5] = Example Compound 209A 635 nM + Azacytidine 2740 nM
[6] = Example Compound 209A 952 nM + Azacytidine 4110 nM
[7] = Example Compound 235A 780 nM + Azacytidine 2740 nM
[8] = Example Compound 235A 1170 nM + Azacytidine 4110 nM
[9] = Example Compound 14 4420 nM + Cabozantinib 6000 nM
[10] = Example Compound 209A 952 nM + Cabozantinib 6000 nM
[11] = Example Compound 235A 1170 nM + Cabozantinib 6010 nM
[12] = Example Compound 14 4420 nM + Etoposide 3790 nM
[13] = Example Compound 209A 952 nM + Etoposide 3790 nM
[14] = Example Compound 235A 1170 nM + Etoposide 3790 nM
[15] = Example Compound 14 4420 nM + Lapatinib 6000 nM
[16] = Example Compound 209A 952 nM + Lapatinib 6000 nM
[17] = Example Compound 235A 1170 nM + Lapatinib 6010 nM
[18] = Example Compound 14 4420 nM + Luminespib 13.5 nM
[19] = Example Compound 209A 952 nM + Luminespib 13.5 nM
[20] = Example Compound 235A 1750 nM + Luminespib 8.13 nM
[21] = Example Compound 14 4420 nM + Midostaurin 251 nM
[22] = Example Compound 209A 952 nM + Midostaurin 251 nM
[23] = Example Compound 235A 1170 nM + Midostaurin 251 nM
[24] = Example Compound 14 4420 nM + Olaparib 14800 nM
[25] = Example Compound 209A 952 nM + Olaparib 14800 nM
[26] = Example Compound 235A 1170 nM + Olaparib 14800 nM
[27] = Example Compound 14 4420 nM + Oxaliplatin 1060 nM
[28] = Example Compound 209A 952 nM + Oxaliplatin 1060 nM
[29] = Example Compound 235A 1170 nM + Oxaliplatin 1060 nM
[30] = Example Compound 14 2950 nM + Sunitinib 1870 nM
[31] = Example Compound 14 4420 nM + Sunitinib 2800 nM
[32] = Example Compound 209A 635 nM + Sunitinib 1870 nM
[33] = Example Compound 209A 952 nM + Sunitinib 2800 nM
[34] = Example Compound 235A 780 nM + Sunitinib 1870 nM
[35] = Example Compound 235A 1170 nM + Sunitinib 2810 nM
[36] = Example Compound 14 4420 nM + Talazoparib 7990 nM
[37] = Example Compound 209A 952 nM + Talazoparib 8000 nM
[38] = Example Compound 235A 1170 nM + Talazoparib 8000 nM

## O=c1[nH]cc(F)c(=O)[nH]1 [5-Fluorouracil, 5-fluorouracil]
[1]
  CI value: 0.880
  Fa value: 0.6619
[2]
  CI value: 0.853
  Fa value: 0.7187
[3]
  CI value: 0.880
  Fa value: 0.6738

## Nc1ncn([C@@H]2O[C@H](CO)[C@@H](O)[C@H]2O)c(=O)n1 [Azacytidine, azacitidine]
[4]
  CI value: 0.744
  Fa value: 0.7570
[5]
  CI value: 0.850
  Fa value: 0.6005
[6]
  CI value: 0.520
  Fa value: 0.8264
[7]
  CI value: 0.822
  Fa value: 0.5392
[8]
  CI value: 0.767
  Fa value: 0.6909

## COc1cc2nccc(Oc3ccc(NC(=O)C4(C(=O)Nc5ccc(F)cc5)CC4)cc3)c2cc1OC [Cabozantinib, cabozantinib]
[9]
  CI value: 0.868
  Fa value: 0.7829
[10]
  CI value: 0.486
  Fa value: 0.8982
[11]
  CI value: 0.871
  Fa value: 0.7659

## COc1cc([C@@H]2c3cc4c(cc3[C@@H](O[C@@H]3O[C@@H]5CO[C@@H](C)O[C@H]5[C@H](O)[C@H]3O)[C@H]3COC(=O)[C@H]23)OCO4)cc(OC)c1O [Etoposide, etoposide]
[12]
  CI value: 0.707
  Fa value: 0.7245
[13]
  CI value: 0.635
  Fa value: 0.7460
[14]
  CI value: 0.763
  Fa value: 0.6978

## CS(=O)(=O)CCNCc1ccc(-c2ccc3ncnc(Nc4ccc(OCc5cccc(F)c5)c(Cl)c4)c3c2)o1 [Lapatinib, lapatinib]
[15]
  CI value: 0.512
  Fa value: 0.8641
[16]
  CI value: 0.443
  Fa value: 0.8816
[17]
  CI value: 0.417
  Fa value: 0.8726

## CCNC(=O)c1noc(-c2cc(C(C)C)c(O)cc2O)c1-c1ccc(CN2CCOCC2)cc1 [Luminespib, luminespib]
[18]
  CI value: 0.786
  Fa value: 0.8373
[19]
  CI value: 0.832
  Fa value: 0.8172
[20]
  CI value: 0.819
  Fa value: 0.8795

## CO[C@@H]1[C@H](N(C)C(=O)c2ccccc2)C[C@H]2O[C@]1(C)n1c3ccccc3c3c4c(c5c6ccccc6n2c5c31)C(=O)NC4 [Midostaurin, midostaurin]
[21]
  CI value: 0.719
  Fa value: 0.8117
[22]
  CI value: 0.583
  Fa value: 0.8520
[23]
  CI value: 0.775
  Fa value: 0.7639

## O=C(c1cc(Cc2n[nH]c(=O)c3ccccc23)ccc1F)N1CCN(C(=O)C2CC2)CC1 [Olaparib, olaparib]
[24]
  CI value: 0.668
  Fa value: 0.7031
[25]
  CI value: 0.478
  Fa value: 0.7947
[26]
  CI value: 0.683
  Fa value: 0.6832

## O=C1[O][Pt]2([NH][C@@H]3CCCC[C@H]3[NH]2)[O]C1=O [Oxaliplatin, oxaliplatin]
[27]
  CI value: 0.829
  Fa value: 0.7498
[28]
  CI value: 0.762
  Fa value: 0.7832
[29]
  CI value: 0.793
  Fa value: 0.7355

## CCN(CC)CCNC(=O)c1c(C)[nH]c(/C=C2\C(=O)Nc3ccc(F)cc32)c1C [Sunitinib, sunitinib]
[30]
  CI value: 0.693
  Fa value: 0.7017
[31]
  CI value: 0.728
  Fa value: 0.8248
[32]
  CI value: 0.688
  Fa value: 0.6919
[33]
  CI value: 0.723
  Fa value: 0.8234
[34]
  CI value: 0.709
  Fa value: 0.6775
[35]
  CI value: 0.675
  Fa value: 0.8225

## Cn1ncnc1[C@H]1c2n[nH]c(=O)c3cc(F)cc(c23)N[C@@H]1c1ccc(F)cc1 [Talazoparib, talazoparib]
[36]
  CI value: 0.540
  Fa value: 0.7406
[37]
  CI value: 0.422
  Fa value: 0.7998
[38]
  CI value: 0.585
  Fa value: 0.6990
